# Values of other authors as cited in patent US20240325452A1, “METHODS AND COMPOSITIONS FOR DREADD-ACTIVATABLE CELLS FOR NEURAL REPAIR” (Drexel University, priority 2023, published 2024).
# Columns and labels:
# hM3Dq = hM3Dq (Homo sapiens, UniProt P20309, A239G/Y149C); conditions: hM3 with two point mutations
# [1] = it has been reported
# hM3Dq and hM4Di DREADDs = conditions: marketed ligands, active in vivo
# Chain of hM3Dq (P20309 whole entry Y149C/A239G): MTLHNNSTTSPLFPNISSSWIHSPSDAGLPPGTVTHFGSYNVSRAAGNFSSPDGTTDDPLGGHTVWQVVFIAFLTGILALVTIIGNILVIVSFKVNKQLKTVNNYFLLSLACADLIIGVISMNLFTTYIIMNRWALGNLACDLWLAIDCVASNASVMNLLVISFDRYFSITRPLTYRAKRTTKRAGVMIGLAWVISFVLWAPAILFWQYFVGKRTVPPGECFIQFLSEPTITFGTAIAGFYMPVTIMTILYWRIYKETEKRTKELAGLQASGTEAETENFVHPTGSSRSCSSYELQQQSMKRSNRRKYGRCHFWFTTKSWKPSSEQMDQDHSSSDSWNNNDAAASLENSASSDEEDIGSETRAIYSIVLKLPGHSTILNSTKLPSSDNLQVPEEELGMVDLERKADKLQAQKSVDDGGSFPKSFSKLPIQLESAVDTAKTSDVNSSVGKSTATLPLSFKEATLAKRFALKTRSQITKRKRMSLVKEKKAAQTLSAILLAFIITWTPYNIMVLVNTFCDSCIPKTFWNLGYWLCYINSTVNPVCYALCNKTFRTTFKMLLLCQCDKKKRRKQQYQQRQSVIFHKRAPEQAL
compound,measurement,setting,value
"C[N+]1([O-])CCN(C2=Nc3cc(Cl)ccc3Nc3ccccc32)CC1 [CNO, clozapine N-oxide]",potency at mutant receptor,hM3Dq,nanomolar potency
c1ccc2c(c1)N=C(N1CCNCC1)c1ccccc1N2 [Compound 21],"bioavailability, pharmacokinetic properties and brain penetrability",[1],excellent
same,reverse metabolism to clozapine,[1],does not undergo reverse metabolism to clozapine
CCN1CCN(C2=Nc3cc(Cl)ccc3Nc3c(F)cccc32)CC1 [JHU37160],potency and affinity,hM3Dq and hM4Di DREADDs,high potency and affinity
